Experimental data taken from patent US8026410B2 (priority 2003, dated 2011).

Columns and labels:
[1] = tested on: Tobacco seeds germinated on MS medium containing DAS; design: species or system Nicotiana tabacum; details: in vivo
[2] = tested on: Tobacco seeds germinated on MS medium containing DON; design: species or system Nicotiana tabacum; details: in vivo
wheat = details: in vivo; cited from earlier work
[3] = tested on: Phytophthora infestans, Colletotrichum coccodes, fusarium solani, fusarium sulphureum, Phoma foreata and Rhizoctonia solani; details: cited from earlier work
[4] = tested on: transgenic tobacco plants; details: in vivo; cited from earlier work

Molecule: 4,15-diacetoxyscirpenol [DAS]
- lowest concentration that would give the best inhibition of wild type tobacco seed growth [1]: 1 µM

Molecule: CC1=C[C@H]2O[C@@H]3[C@H](O)C[C@](C)([C@@]2(CO)[C@H](O)C1=O)[C@]31CO1 [DON, Deoxynivalenol]
- lowest concentration that would give the best inhibition of wild type tobacco seed growth [2]: 10 µM
- inhibition toward wheat (wheat): far more inhibitory than DAS

B1: PAP: 29-kDa ribosome inactivating protein (protein)
chain: VNTIIYNVGSTTISKYATFLNDLRNEAKDPSLKCYGIPMLPNTNTNPKYVLVELQGSNKKTITLMLRRNNLYVMGYSDPFETNKCRYHIFNDISGTERQDVETTLCPNANSRVSKNINFDSRYPTLESKAGVKSRSQVQLGIQILDSNIGKISGVMSFTEKTEAEFLLVAIQMVSEAARFKYIENQVKTNFNRAFNPNPKVLNLQETWGKISTAIHDAKNGVLPKPLELVDASGAKWIVLRVDEIKPDVALLNYVGGSCQTTY
- effect on growth of fungi in vitro [3]: no effect on the growth
- phenotype of PAP-expressing tobacco plants [4]: stunted, mottled phenotype
